Source: ChEMBL document CHEMBL1135346, “2,5-Pyridinedicarboxylic acid derivatives as non-nucleosidic reverse transcriptase inhibitors of hepatitis B virus” (Bioorg Med Chem Lett, 2002)
Values after ≈ are worked out from the molar mass of the structure shown.

Assays:
[1] = Inhibitory concentration against Hepatitis B virus reverse transcriptase (HBV-RT)
[2] = Inhibitory activity against Hepatitis B virus reverse transcriptase (HBV-RT) at 0.01 ug/mL
[3] = Inhibitory activity against Hepatitis B virus reverse transcriptase (HBV-RT) at 0.1 ug/mL
[4] = Inhibitory activity against Hepatitis B virus reverse transcriptase (HBV-RT) at 1 ug/mL
[5] = Inhibitory concentration against Hepatitis B virus-Reverse-transcriptase (HBV-RT)

SMILES	IC50 [1] [µg/mL]	inhibition [2] [%]	inhibition [3] [%]	inhibition [4] [%]	IC50 [5] [µg/mL]
Cc1ccn(NC(=O)c2ccc(C(=O)N3CCN(c4ncccc4NC(C)C)CC3)nc2)n1	0.124 (≈ 0.276 µM)	20	53	70	–
CC(C)Nc1cccnc1N1CCN(C(=O)c2ccc(C(=O)NC3CC3)cn2)CC1	0.237 (≈ 0.58 µM)	5	51	62	–
CC(C)Nc1cccnc1N1CCN(C(=O)c2ccc(C(=O)NCCO)cn2)CC1	0.261 (≈ 0.633 µM)	30	51	54	–
CC(C)CNc1cccnc1N1CCN(C(=O)c2ccc(C(=O)NCCCn3ccnc3)cn2)CC1	0.002 (≈ 0.00408 µM)	60	72	88	–
CCNc1cccnc1N1CCN(C(=O)c2ccc(C(=O)NCc3ccccn3)cn2)CC1	0.116 (≈ 0.26 µM)	19	56	70	–
CC(C)Nc1cccnc1N1CCN(C(=O)c2ccc(C(=O)NC(C)(C)CO)cn2)CC1	–	62	65	80	0.001 (≈ 0.00227 µM)
Nc1cccnc1N1CCN(C(=O)c2ccc(C(=O)NCCO)cn2)CC1	0.003 (≈ 0.0081 µM)	54	67	74	–
COCCNC(=O)c1ccc(C(=O)N2CCN(c3ncccc3NC(C)C)CC2)nc1	0.001 (≈ 0.00234 µM)	60	68	80	–
CC(C)Nc1cccnc1N1CCN(C(=O)c2ccc(C(=O)NC(C)(C)C)cn2)CC1	0.002 (≈ 0.00471 µM)	61	72	88	–
CC(C)Nc1cccnc1N1CCN(C(=O)c2ccc(C(=O)NC3CCCC3)cn2)CC1	0.029 (≈ 0.0664 µM)	39	65	75	–
CC(C)Nc1cccnc1N1CCN(C(=O)c2ccc(C(=O)NCc3ccccn3)cn2)CC1	0.007 (≈ 0.0152 µM)	53	62	77	–
CCNc1cccnc1N1CCN(C(=O)c2ccc(C(=O)NC(C)C)cn2)CC1	0.006 (≈ 0.0151 µM)	54	67	85	–
COC(CNC(=O)c1ccc(C(=O)N2CCN(c3ncccc3NC(C)C)CC2)nc1)OC	0.005 (≈ 0.011 µM)	57	65	87	–
CCNc1cccnc1N1CCN(C(=O)c2ccc(C(=O)NCCO)cn2)CC1	0.007 (≈ 0.0176 µM)	52	69	84	–
CCNc1cccnc1N1CCN(C(=O)c2ccc(C(=O)NCCN3CCOCC3)cn2)CC1	0.109 (≈ 0.233 µM)	30	52	66	–
CC(C)NC(=O)c1ccc(C(=O)N2CCN(c3ncccc3N)CC2)nc1	0.023 (≈ 0.0624 µM)	43	62	79	–
CC(C)CNc1cccnc1N1CCN(C(=O)c2ccc(C(=O)NCCO)cn2)CC1	0.009 (≈ 0.0211 µM)	54	60	86	–
CC(C)(CO)NC(=O)c1ccc(C(=O)N2CCN(c3ncccc3N)CC2)nc1	0.038 (≈ 0.0954 µM)	38	62	70	–
CC(C)CNc1cccnc1N1CCN(C(=O)c2ccc(C(=O)NC3CC3)cn2)CC1	0.002 (≈ 0.00473 µM)	60	71	87	–
CC(C)CNc1cccnc1N1CCN(C(=O)c2ccc(C(=O)NC(C)C)cn2)CC1	0.005 (≈ 0.0118 µM)	58	66	90	–

More lines, now with the values ahead:

IC50 [1] [µg/mL]	inhibition [2] [%]	inhibition [3] [%]	inhibition [4] [%]	IC50 [5] [µg/mL]	SMILES
0.002 (≈ 0.00471 µM)	61	65	83	–	CC(C)CNC(=O)c1ccc(C(=O)N2CCN(c3ncccc3NC(C)C)CC2)nc1
0.17 (≈ 0.357 µM)	13	46	71	–	CC(C)CNc1cccnc1N1CCN(C(=O)c2ccc(C(=O)Nc3ncccc3O)cn2)CC1
0.149 (≈ 0.363 µM)	23	51	65	–	CC(C)NC(=O)c1ccc(C(=O)N2CCN(c3ncccc3NC(C)C)CC2)nc1
0.001 (≈ 0.0022 µM)	63	71	90	–	CC(C)CNc1cccnc1N1CCN(C(=O)c2ccc(C(=O)NC(C)(C)CO)cn2)CC1
0.13 (≈ 0.295 µM)	28	53	63	–	COCCCNC(=O)c1ccc(C(=O)N2CCN(c3ncccc3NC(C)C)CC2)nc1
0.123 (≈ 0.271 µM)	20	51	72	–	COCCCNC(=O)c1ccc(C(=O)N2CCN(c3ncccc3NCC(C)C)CC2)nc1
0.106 (≈ 0.254 µM)	22	54	72	–	Nc1cccnc1N1CCN(C(=O)c2ccc(C(=O)NCc3ccccn3)cn2)CC1
0.11 (≈ 0.245 µM)	25	50	72	–	Cc1cc(NC(=O)c2ccc(C(=O)N3CCN(c4ncccc4NC(C)C)CC3)nc2)no1
0.068 (≈ 0.159 µM)	32	56	72	–	CCNc1cccnc1N1CCN(C(=O)c2ccc(C(=O)NC(C)(C)CO)cn2)CC1
0.085 (≈ 0.191 µM)	26	55	74	–	CC(C)Nc1cccnc1N1CCN(C(=O)c2ccc(C(=O)Nc3ccccn3)cn2)CC1
0.049 (≈ 0.119 µM)	36	57	75	–	CCNc1cccnc1N1CCN(C(=O)c2ccc(C(=O)NCCOC)cn2)CC1
0.012 (≈ 0.0249 µM)	49	60	70	–	CC(C)Nc1cccnc1N1CCN(C(=O)c2ccc(C(=O)NCCN3CCOCC3)cn2)CC1
0.012 (≈ 0.0281 µM)	49	60	71	–	CC(C)Nc1cccnc1N1CCN(C(=O)c2ccc(C(=O)NCCCO)cn2)CC1
0.007 (≈ 0.0159 µM)	52	70	85	–	COCCNC(=O)c1ccc(C(=O)N2CCN(c3ncccc3NCC(C)C)CC2)nc1
0.001 (≈ 0.0021 µM)	65	72	89	–	CC(C)Nc1cccnc1N1CCN(C(=O)c2ccc(C(=O)NCCCn3ccnc3)cn2)CC1
